Measurements taken from ChEMBL document CHEMBL3885861, “Open TG-GATES”.
*1 amine or outer side, *2 acyl side, *3 side chain or, on linkers, in order; H or OH if unused. Where a SMILES comes first, the peptide text is derived from it. Bridges are numbered along the chain shown (N, C = ends). [ ]: non-standard residue; d: D form. Trp(2-yl) = O=C([C@H](Cc1c([*:3])[nH]c2ccccc12)N[*:1])[*:2]; Leu(4R-OH,5-OH) = C[C@](O)(CO)C[C@H](N)C(=O)O; cisHyp = O=C(O)[C@@H]1C[C@H](O)CN1

Species on record: Rattus norvegicus
Assay: Open TG-GATES - Regimen: Single
Type: toxicity, organism-based, Sprague-Dawley
Parameters: regimen Single, gender Male, age 6 weeks
Settings: in vivo, ip, 1 mg/kg, route intraperitoneal injection, dose level High; for APTT / Bas / Eos / Fbg / Hb / Ht / Lym / MCH / MCHC / MCV / Mono / Neu / PT / Plat / RBC / Ret / WBC: tissue Blood; for KIDNEY_L / KIDNEY_R / KIDNEY_TOTAL: tissue Kidney; for LIVER: tissue Liver; for A/G / ALP / ALT / AST / BUN / CRE / Ca / Cl / DBIL / GLC / IP / K / LDH / Na / PL / RALB / TBIL / TC / TG / TP / gamma-GTP: tissue Plasma

C[C@@H]1NC(=O)[C@H](C[C@@](C)(O)CO)NC(=O)[C@@H]2Cc3c([nH]c4ccccc34)SC[C@H](NC(=O)[C@@H]([C@H](C)O)NC1=O)C(=O)N1C[C@@H](O)C[C@H]1C(=O)N[C@@H](C)C(=O)N2 [PHALLOIDIN] (cyclo(A[dT]C[cisHyp]A[Trp(2-yl)][Leu(4R-OH,5-OH)]); thioether 3-6)
TERMINAL_BW (3 h): 211.9 g | APTT (3 h): 21.8 s | Bas (3 h): 0% | Eos (3 h): 0% | Fbg (3 h): 259.6 mg/dL | Hb (3 h): 12.4 g/dL | Ht (3 h): 39.5% | Lym (3 h): 73.8% | MCH (3 h): 20 pg | MCHC (3 h): 31.5% | MCV (3 h): 63.3 fL | Mono (3 h): 2.6% | Neu (3 h): 22.6% | PT (3 h): 15.9 s | Plat (3 h): 108.1 x10_4/uL | RBC (3 h): 623.8 x10_4/ul | Ret (3 h): 7.7% | WBC (3 h): 66 x10_2/uL | KIDNEY_L (3 h): 1 g | KIDNEY_R (3 h): 1 g | KIDNEY_TOTAL (3 h): 2 g | LIVER (3 h): 9.1 g | A/G (3 h): 1.2 | ALP (3 h): 1810.8 IU/L | ALT (3 h): 49.6 IU/L | AST (3 h): 110 IU/L | BUN (3 h): 12 mg/dL | CRE (3 h): 0.2 mg/dL | Ca (3 h): 10.4 mg/dL | Cl (3 h): 107.8 meq/L | DBIL (3 h): 0.006 mg/dL | GLC (3 h): 184.8 mg/dL | IP (3 h): 8.6 mg/dL | K (3 h): 4 meq/L | LDH (3 h): 235.2 IU/L | Na (3 h): 139.6 meq/L | PL (3 h): 125.8 mg/dL | RALB (3 h): 2.7 g/dL | TBIL (3 h): 0.012 mg/dL | TC (3 h): 78.6 mg/dL | TG (3 h): 36.2 mg/dL | TP (3 h): 4.9 g/dL | gamma-GTP (3 h): 1.6 IU/L | TERMINAL_BW (6 h): 210 g | APTT (6 h): 22.3 s | Bas (6 h): 0% | Eos (6 h): 0.2% | Fbg (6 h): 286.6 mg/dL | Hb (6 h): 12.5 g/dL | Ht (6 h): 39.2% | Lym (6 h): 79.6% | MCH (6 h): 20 pg | MCHC (6 h): 31.9% | MCV (6 h): 62.6 fL | Mono (6 h): 2% | Neu (6 h): 17.4% | PT (6 h): 15.9 s | Plat (6 h): 111.9 x10_4/uL | RBC (6 h): 626 x10_4/ul | Ret (6 h): 6.8% | WBC (6 h): 90.8 x10_2/uL | KIDNEY_L (6 h): 0.9 g | KIDNEY_R (6 h): 1 g | KIDNEY_TOTAL (6 h): 1.9 g | LIVER (6 h): 9.2 g | A/G (6 h): 1.3 | ALP (6 h): 1613.8 IU/L | ALT (6 h): 56.6 IU/L | AST (6 h): 114.6 IU/L | BUN (6 h): 14.8 mg/dL | CRE (6 h): 0.2 mg/dL | Ca (6 h): 10.3 mg/dL | Cl (6 h): 106.2 meq/L | DBIL (6 h): 0 mg/dL | GLC (6 h): 186.4 mg/dL | IP (6 h): 7.6 mg/dL | K (6 h): 3.9 meq/L | LDH (6 h): 232 IU/L | Na (6 h): 142 meq/L | PL (6 h): 141 mg/dL | RALB (6 h): 2.9 g/dL | TBIL (6 h): 0.004 mg/dL | TC (6 h): 90.4 mg/dL | TG (6 h): 65.8 mg/dL | TP (6 h): 5.1 g/dL | gamma-GTP (6 h): 1.8 IU/L | TERMINAL_BW (9 h): 208.3 g | APTT (9 h): 20.7 s | Bas (9 h): 0% | Eos (9 h): 0.4% | Fbg (9 h): 291.6 mg/dL | Hb (9 h): 12.3 g/dL | Ht (9 h): 39.3% | Lym (9 h): 80.6% | MCH (9 h): 20.2 pg | MCHC (9 h): 31.4% | MCV (9 h): 64.4 fL | Mono (9 h): 2.4% | Neu (9 h): 15.4% | PT (9 h): 15.3 s | Plat (9 h): 114.2 x10_4/uL | RBC (9 h): 610.4 x10_4/ul | Ret (9 h): 7.8% | WBC (9 h): 75 x10_2/uL | KIDNEY_L (9 h): 0.9 g | KIDNEY_R (9 h): 0.9 g | KIDNEY_TOTAL (9 h): 1.9 g | LIVER (9 h): 9.2 g | A/G (9 h): 1.3 | ALP (9 h): 1636.4 IU/L | ALT (9 h): 56.8 IU/L | AST (9 h): 109.6 IU/L | BUN (9 h): 12.8 mg/dL | CRE (9 h): 0.2 mg/dL | Ca (9 h): 10.4 mg/dL | Cl (9 h): 106.4 meq/L | DBIL (9 h): 0 mg/dL | GLC (9 h): 180.4 mg/dL | IP (9 h): 7.9 mg/dL | K (9 h): 4.3 meq/L | LDH (9 h): 158.2 IU/L | Na (9 h): 140.4 meq/L | PL (9 h): 144 mg/dL | RALB (9 h): 2.9 g/dL | TBIL (9 h): 0.008 mg/dL | TC (9 h): 97.4 mg/dL | TG (9 h): 63.2 mg/dL | TP (9 h): 5.1 g/dL | gamma-GTP (9 h): 1.6 IU/L | TERMINAL_BW (24 h): 220.3 g | APTT (24 h): 21.7 s | Bas (24 h): 0% | Eos (24 h): 0.8% | Fbg (24 h): 304.4 mg/dL | Hb (24 h): 12.5 g/dL | Ht (24 h): 39.6% | Lym (24 h): 81.2% | MCH (24 h): 20.3 pg | MCHC (24 h): 31.7% | MCV (24 h): 64 fL | Mono (24 h): 1.8% | Neu (24 h): 15.6% | PT (24 h): 15.4 s | Plat (24 h): 119.9 x10_4/uL | RBC (24 h): 619.8 x10_4/ul | Ret (24 h): 7.6% | WBC (24 h): 71.5 x10_2/uL | KIDNEY_L (24 h): 1 g | KIDNEY_R (24 h): 1 g | KIDNEY_TOTAL (24 h): 2.1 g | LIVER (24 h): 10.2 g | A/G (24 h): 1.2 | ALP (24 h): 1849.4 IU/L | ALT (24 h): 45 IU/L | AST (24 h): 81.6 IU/L | BUN (24 h): 15.2 mg/dL | CRE (24 h): 0.1 mg/dL | Ca (24 h): 10.7 mg/dL | Cl (24 h): 106.8 meq/L | DBIL (24 h): 0.002 mg/dL | GLC (24 h): 189.2 mg/dL | IP (24 h): 8.2 mg/dL | K (24 h): 4.4 meq/L | LDH (24 h): 191 IU/L | Na (24 h): 141.6 meq/L | PL (24 h): 147.2 mg/dL | RALB (24 h): 2.8 g/dL | TBIL (24 h): 0.002 mg/dL | TC (24 h): 95.8 mg/dL | TG (24 h): 74 mg/dL | TP (24 h): 5.3 g/dL | gamma-GTP (24 h): 1.6 IU/L
